How the values were obtained:
[1] = bacteroides stercoris, 12 h, 2 µM
Description: The drug is tested on Bacteroides stercoris strain: ATCC43183 for biotransformation. The drug concentrations were measured before and after a 12-h incubation by liquid-chromatography-coupled mass spectrometry (LC–MS)

[2] = The drug is tested on Clostridium symbiosum strain: ATCC14940 for biotransformation. The drug concentrations were measured before and after a 12-h incubation by liquid-chromatography-coupled mass spectrometry (LC–MS); details: 2 µM
[3] = bacteroides intestinalis, 12 h, 2 µM
Description: The drug is tested on Bacteroides intestinalis strain: DSM17393 for biotransformation. The drug concentrations were measured before and after a 12-h incubation by liquid-chromatography-coupled mass spectrometry (LC–MS)

[4] = bacteroides eggerthii, 12 h, 2 µM
Description: The drug is tested on Bacteroides eggerthii strain: DSM20697 for biotransformation. The drug concentrations were measured before and after a 12-h incubation by liquid-chromatography-coupled mass spectrometry (LC–MS)

[5] = The drug is tested on Ruminococcus lactaris strain: ATCC29176 for biotransformation. The drug concentrations were measured before and after a 12-h incubation by liquid-chromatography-coupled mass spectrometry (LC–MS); details: 2 µM
[6] = The drug is tested on Bacteroides fragilis strain: ATCC43859 for biotransformation. The drug concentrations were measured before and after a 12-h incubation by liquid-chromatography-coupled mass spectrometry (LC–MS); details: 2 µM
[7] = roseburia intestinalis, 12 h, 2 µM
Description: The drug is tested on Roseburia intestinalis strain: L1-82 for biotransformation. The drug concentrations were measured before and after a 12-h incubation by liquid-chromatography-coupled mass spectrometry (LC–MS)

[8] = The drug is tested on Ruminococcus torques strain: ATCC27756 for biotransformation. The drug concentrations were measured before and after a 12-h incubation by liquid-chromatography-coupled mass spectrometry (LC–MS); assay type: ADME; design: dose 2 uM, timepoint 0 vs 12 hours; details: 2 µM
[9] = The drug is tested on Bacteroides finegoldii strain: DSM17565 for biotransformation. The drug concentrations were measured before and after a 12-h incubation by liquid-chromatography-coupled mass spectrometry (LC–MS); details: 2 µM
[10] = The drug is tested on Bifidobacterium longum subsp. Infantis strain: CCUG52486 for biotransformation. The drug concentrations were measured before and after a 12-h incubation by liquid-chromatography-coupled mass spectrometry (LC–MS); details: 2 µM
[11] = The drug is tested on Bacteroides vulgatus strain: ATCC8482 for biotransformation. The drug concentrations were measured before and after a 12-h incubation by liquid-chromatography-coupled mass spectrometry (LC–MS); details: phocaeicola vulgatus, 2 µM
[12] = bacteroides thetaiotaomicron, 12 h, 2 µM
Description: The drug is tested on Bacteroides thetaiotaomicron strain: 7330 for biotransformation. The drug concentrations were measured before and after a 12-h incubation by liquid-chromatography-coupled mass spectrometry (LC–MS)

[13] = The drug is tested on Bacteroides fragilis strain: HMW610 for biotransformation. The drug concentrations were measured before and after a 12-h incubation by liquid-chromatography-coupled mass spectrometry (LC–MS); details: 2 µM
[14] = akkermansia muciniphila, 12 h, 2 µM
Description: The drug is tested on Akkermansia muciniphila strain: ATCC BAA-835 for biotransformation. The drug concentrations were measured before and after a 12-h incubation by liquid-chromatography-coupled mass spectrometry (LC–MS)

[15] = The drug is tested on Bacteroides cellulosilyticus strain: DSM14838 for biotransformation. The drug concentrations were measured before and after a 12-h incubation by liquid-chromatography-coupled mass spectrometry (LC–MS); details: 2 µM
[16] = The drug is tested on Bifidobacterium ruminantium strain: fecal isolate for biotransformation. The drug concentrations were measured before and after a 12-h incubation by liquid-chromatography-coupled mass spectrometry (LC–MS); details: 2 µM
[17] = The drug is tested on Bacteroides uniformis strain: ATCC8492 for biotransformation. The drug concentrations were measured before and after a 12-h incubation by liquid-chromatography-coupled mass spectrometry (LC–MS); details: 2 µM
[18] = The drug is tested on Providencia rettgeri strain: DSM1131 for biotransformation. The drug concentrations were measured before and after a 12-h incubation by liquid-chromatography-coupled mass spectrometry (LC–MS); assay type: ADME; design: dose 2 uM, timepoint 0 vs 12 hours; details: 2 µM
[19] = The drug is tested on Bacteroides dorei strain: DSM17855 for biotransformation. The drug concentrations were measured before and after a 12-h incubation by liquid-chromatography-coupled mass spectrometry (LC–MS); details: phocaeicola dorei, 2 µM
[20] = bifidobacterium adolescentis, 12 h, 2 µM
Description: The drug is tested on Bifidobacterium adolescentis strain: ATCC 15703 for biotransformation. The drug concentrations were measured before and after a 12-h incubation by liquid-chromatography-coupled mass spectrometry (LC–MS)

Compound	Bacterial Biotransformation [1]	Bacterial Biotransformation [2]	Bacterial Biotransformation [3]	Bacterial Biotransformation [4]	Bacterial Biotransformation [5]	Bacterial Biotransformation [6]	Bacterial Biotransformation [7]	Bacterial Biotransformation [8]	Bacterial Biotransformation [9]	Bacterial Biotransformation [10]	Bacterial Biotransformation [11]	Bacterial Biotransformation [12]	Bacterial Biotransformation [13]	Bacterial Biotransformation [14]	Bacterial Biotransformation [15]	Bacterial Biotransformation [16]	Bacterial Biotransformation [17]	Bacterial Biotransformation [18]	Bacterial Biotransformation [19]	Bacterial Biotransformation [20]
CS(=O)(=O)O.O.O.O.O=C1Cc2cc(CCN3CCN(c4nsc5ccccc45)CC3)c(Cl)cc2N1 [ZIPRASIDONE MESYLATE]	Compound NOT metabolized	Compound NOT metabolized	Compound NOT metabolized	Compound NOT metabolized	Compound NOT metabolized	Compound NOT metabolized	Compound NOT metabolized	Compound NOT metabolized	Compound NOT metabolized	Compound NOT metabolized	Compound metabolized	Compound NOT metabolized	Compound NOT metabolized	Compound NOT metabolized	Compound NOT metabolized	Compound NOT metabolized	Compound NOT metabolized	Compound NOT metabolized	Compound NOT metabolized	
O=c1[nH]c2ccccc2n1C1CCN(CCCC(c2ccc(F)cc2)c2ccc(F)cc2)CC1 [PIMOZIDE]	Compound NOT metabolized	Compound NOT metabolized	Compound NOT metabolized	Compound NOT metabolized	Compound NOT metabolized	Compound NOT metabolized	Compound NOT metabolized	Compound NOT metabolized	Compound NOT metabolized	Compound NOT metabolized	Compound NOT metabolized	Compound NOT metabolized	Compound NOT metabolized	Compound NOT metabolized	Compound NOT metabolized	Compound NOT metabolized	Compound NOT metabolized	Compound NOT metabolized	Compound NOT metabolized	Compound NOT metabolized
CN1[C@@H]2CC[C@H]1C[C@@H](OC(=O)c1c[nH]c3ccccc13)C2 [TROPISETRON]	Compound NOT metabolized	Compound NOT metabolized	Compound NOT metabolized	Compound NOT metabolized	Compound NOT metabolized	Compound NOT metabolized	Compound NOT metabolized	Compound NOT metabolized	Compound NOT metabolized	Compound NOT metabolized	Compound NOT metabolized	Compound NOT metabolized	Compound NOT metabolized	Compound NOT metabolized	Compound NOT metabolized	Compound NOT metabolized	Compound NOT metabolized	Compound NOT metabolized	Compound NOT metabolized	Compound NOT metabolized
CCOc1ccccc1OCCN[C@H](C)Cc1ccc(OC)c(S(N)(=O)=O)c1.Cl [TAMSULOSIN HYDROCHLORIDE]	Compound NOT metabolized	Compound NOT metabolized	Compound NOT metabolized	Compound NOT metabolized	Compound NOT metabolized	Compound NOT metabolized	Compound NOT metabolized	Compound NOT metabolized	Compound NOT metabolized	Compound NOT metabolized	Compound NOT metabolized	Compound NOT metabolized	Compound NOT metabolized	Compound NOT metabolized	Compound NOT metabolized	Compound NOT metabolized	Compound NOT metabolized	Compound NOT metabolized	Compound NOT metabolized	Compound NOT metabolized
CN(C/C=C/C#CC(C)(C)C)Cc1cccc2ccccc12 [TERBINAFINE]	Compound NOT metabolized	Compound NOT metabolized	Compound NOT metabolized	Compound NOT metabolized	Compound NOT metabolized	Compound NOT metabolized	Compound NOT metabolized	Compound NOT metabolized	Compound NOT metabolized	Compound NOT metabolized	Compound NOT metabolized	Compound NOT metabolized	Compound NOT metabolized	Compound NOT metabolized	Compound NOT metabolized	Compound NOT metabolized	Compound NOT metabolized	Compound NOT metabolized	Compound NOT metabolized	Compound NOT metabolized
CCC(COC(=O)c1cc(OC)c(OC)c(OC)c1)(c1ccccc1)N(C)C.O=C(O)/C=C\C(=O)O (centres undefined)	Compound metabolized	Compound metabolized	Compound metabolized	Compound NOT metabolized	Compound metabolized	Compound NOT metabolized	Compound metabolized	Compound metabolized	Compound metabolized	Compound metabolized	Compound NOT metabolized	Compound metabolized	Compound NOT metabolized	Compound metabolized	Compound NOT metabolized	Compound metabolized	Compound metabolized	Compound NOT metabolized	Compound metabolized	Compound metabolized
CCOc1ccc(NC(C)=O)cc1 [PHENACETIN]	Compound NOT metabolized	Compound NOT metabolized	Compound NOT metabolized	Compound NOT metabolized	Compound NOT metabolized	Compound NOT metabolized	Compound NOT metabolized	Compound NOT metabolized	Compound NOT metabolized	Compound NOT metabolized	Compound NOT metabolized	Compound NOT metabolized	Compound NOT metabolized	Compound NOT metabolized	Compound NOT metabolized	Compound NOT metabolized	Compound NOT metabolized	Compound NOT metabolized	Compound NOT metabolized	Compound NOT metabolized
